In patent publication US10597382B2, “Tetrazole containing apoptosis signal-regulating kinase 1 inhibitors and methods of use thereof” (ENANTA PHARMACEUTICALS, INC., priority 2017, dated 2020):
Each block holds one compound with its values, some of them ahead of it.

Target: ASK1 kinase (Homo sapiens (Human), UniProt Q99683)
Assay: HTRF KinEASE assay of ASK1 kinase activity inhibition
Type: biochemical
Conditions: HTRF KinEASE-STK TR-FRET; 5 nM ASK1, 1 uM STK3 peptide substrate, 100 uM ATP, 3 hours
Procedure: • The ability (IC50) of compounds to inhibit ASK1 kinase activity was determined by HTRF® KinEASE™ Assay System
ASK1 kinase was from Thermofisher (Catalogue # PV4011), ATP was from Sigma (Catalogue # A7699), HTRF® KinEASE™ Assay System was obtained from Cisbio (Bedford, Mass.). ½ Area plate was from Perkin Elmer (Catalogue #6005560). HTRF® KinEASE™-STK is a generic method for measuring serine/threonine kinase activities using time-resolved fluorescence resonance energy transfer (TR-FRET) immunoassay. The IC50 value for each compound was determined in the presence of compound (various concentration from 0 to 10 uM) and a fixed amount of ATP, peptide substrates. Test compound, 1 uM STK3 peptide substrate, 5 nM of ASK1 kinase are incubated with kinase reaction buffer, containing 50 mM HEPES pH 7.5, 0.01% BRIJ-35, 10 mM MgCl2, and 1 mM EGTA for 30 minutes, then 100 uM ATP is added to start kinase reaction and incubated for 3 hours. The STK3-antibody labeled with Eu^3+-Cryptate and 125 nM streptavidin-XL665 are mixed in a single addition with stop reagents provided by the Cisbio kit used to stop the kinase reaction. Fluorescence is detected using Envision Multilabeled 2014 reader from PerkinElmer. The Fluorescence is measured at 615 nm (Cryptate) and 665 nm (XL665) and a ratio of 665 nm/615 nm is calculated for each well. The resulting TR-FRET is proportional to the phosphorylation level. Staurosporine was used as the positive control. IC50 was determined by Xlfit 5.3.
By using above method, the inhibition of ASK1 was tested for the compound of formula (I). IC50 ranges are as follows: A<1 nM; 1 nM<[…]B<10 nM; 10 nM<C<100 nM; 100 nM<D<1 μM; E>1 μM.

ASK1 kinase, sequence (Q99683 whole entry): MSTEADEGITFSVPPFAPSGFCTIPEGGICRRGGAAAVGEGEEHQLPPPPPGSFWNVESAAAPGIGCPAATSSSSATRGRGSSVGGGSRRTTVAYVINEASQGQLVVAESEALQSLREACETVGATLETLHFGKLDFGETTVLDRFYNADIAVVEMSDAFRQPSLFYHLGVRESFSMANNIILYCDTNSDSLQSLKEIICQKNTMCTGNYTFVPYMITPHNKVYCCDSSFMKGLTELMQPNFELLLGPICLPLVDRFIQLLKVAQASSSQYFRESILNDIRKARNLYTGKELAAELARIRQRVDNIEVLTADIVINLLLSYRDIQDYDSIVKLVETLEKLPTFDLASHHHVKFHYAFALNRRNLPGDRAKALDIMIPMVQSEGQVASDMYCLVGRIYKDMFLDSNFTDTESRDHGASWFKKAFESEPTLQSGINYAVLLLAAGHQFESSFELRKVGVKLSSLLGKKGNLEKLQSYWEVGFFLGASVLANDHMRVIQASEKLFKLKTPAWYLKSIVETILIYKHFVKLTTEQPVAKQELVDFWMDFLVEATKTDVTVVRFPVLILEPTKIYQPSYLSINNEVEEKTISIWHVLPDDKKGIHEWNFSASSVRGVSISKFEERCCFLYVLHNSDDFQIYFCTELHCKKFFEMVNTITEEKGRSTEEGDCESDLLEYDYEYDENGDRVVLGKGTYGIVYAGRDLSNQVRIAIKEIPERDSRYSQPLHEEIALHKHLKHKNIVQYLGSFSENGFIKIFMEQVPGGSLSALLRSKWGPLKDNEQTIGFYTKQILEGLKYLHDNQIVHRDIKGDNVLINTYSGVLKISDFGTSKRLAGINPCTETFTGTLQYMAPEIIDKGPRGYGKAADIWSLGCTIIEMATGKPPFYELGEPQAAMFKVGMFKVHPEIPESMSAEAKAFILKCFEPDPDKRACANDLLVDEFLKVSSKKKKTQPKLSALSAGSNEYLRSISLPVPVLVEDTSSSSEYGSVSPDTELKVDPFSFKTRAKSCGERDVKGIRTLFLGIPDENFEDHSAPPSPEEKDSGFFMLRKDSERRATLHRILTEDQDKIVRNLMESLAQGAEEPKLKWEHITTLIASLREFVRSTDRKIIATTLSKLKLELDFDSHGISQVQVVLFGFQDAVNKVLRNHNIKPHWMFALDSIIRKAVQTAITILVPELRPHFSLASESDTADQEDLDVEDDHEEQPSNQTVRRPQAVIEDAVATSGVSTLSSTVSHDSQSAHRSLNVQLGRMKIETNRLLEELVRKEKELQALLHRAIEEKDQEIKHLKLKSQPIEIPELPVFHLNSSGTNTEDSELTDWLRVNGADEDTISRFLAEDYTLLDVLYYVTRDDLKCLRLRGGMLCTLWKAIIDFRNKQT

SMILES: CC(C)n1nnnc1-c1cccc(N2Cc3ccc(-n4cnc(C5CC5)c4)cc3C2=O)n1 [Example 2, 6-(4-cyclopropyl-1H-imidazol-1-yl)-2-(6-(1-isopropyl-1H-tetrazol-5-yl)pyridine-2-yl)isoindolin-1-one]
IC50: 10 to 100 nM

SMILES: CC(=O)OC[C@@H](C)n1nnnc1-c1cccc(N2Cc3ccc(-n4cnc(C5CC5)c4)cc3C2=O)n1 [Example 3, I-2-(5-(6-(6-(4-cyclopropyl-1H-imidazol-1-yl)-1-oxoisoindolin-2-yl)pyridine-2-yl)-1H-tetrazol-1-yl)propyl acetate]
IC50: 100 to 1000 nM

SMILES: C[C@H](CO)n1nnnc1-c1cccc(N2Cc3ccc(-n4cnc(C5CC5)c4)cc3C2=O)n1 [Example 4, I-6-(4-cyclopropyl-1H-imidazol-1-yl)-2-(6-(1-(1-hydroxypropan-2-yl)-1H-tetrazol-5-yl)pyridine-2-yl)isoindolin-1-one]
IC50: 10 to 100 nM

SMILES: CC(=O)OC[C@@H](C)n1nnnc1-c1cccc(N2Cc3ccc(OC(C)C)cc3C2=O)n1 [Example 5, I-2-(5-(6-(6-isopropoxy-1-oxoisoindolin-2-yl)pyridine-2-yl)-1H-tetrazol-1-yl)propyl acetate]
IC50: > 1000 nM

SMILES: CC(C)Oc1ccc2c(c1)C(=O)N(c1cccc(-c3nnnn3[C@H](C)CO)n1)C2 [Example 6, I-2-(6-(1-(1-hydroxypropan-2-yl)-1H-tetrazol-5-yl)pyridine-2-yl)-6-isopropoxyisoindolin-1-one]
IC50: 1 to 10 nM

SMILES: CC(C)n1nnnc1-c1cccc(N2Cc3ccccc3C2=O)n1 [Example 7]
IC50: 10 to 100 nM

SMILES: CC(C)c1nnnn1-c1cccc(N2Cc3ccc(N4CCOCC4)cc3C2=O)n1 [Example 8]
IC50: 100 to 1000 nM

SMILES: CCN1CCN(c2ccc3c(c2)C(=O)N(c2cccc(-n4nnnc4C(C)C)n2)C3)CC1=O [Example 10]
IC50: 10 to 100 nM

SMILES: Cc1cc2c(cc1OC(C)C)C(=O)N(c1cccc(-c3nnnn3[C@H](C)CO)n1)C2 [Example 14]
IC50: 1 to 10 nM

SMILES: CC(C)n1nnnc1-c1cccc(N2Cc3ccc(-c4cncc(C5CC5)c4)cc3C2=O)n1 [Example 15]
IC50: 10 to 100 nM

SMILES: CC(C)n1nnnc1-c1cccc(N2Cc3ccc(-c4ccc(C5CC5)nc4)cc3C2=O)n1 [Example 16]
IC50: 10 to 100 nM

The remaining lines, values ahead:

IC50: 1 to 10 nM
SMILES: CC(C)c1nnnn1-c1cccc(N2Cc3ccc(-n4cnc(C5CC5)c4)cc3C2=O)n1 [Example 1, 6-(4-cyclopropyl-1H-imidazol-1-yl)-2-(6-(5-isopropyl-1H-tetrazol-1-yl)pyridine-2-yl)isoindolin-1-one]

IC50: 10 to 100 nM
SMILES: CC(C)c1nnnn1-c1cccc(N2Cc3ccc(-c4cccnc4)cc3C2=O)n1 [Example 9]

IC50: 100 to 1000 nM
SMILES: Cc1ncccc1-c1ccc2c(c1)C(=O)N(c1cccc(-n3nnnc3C(C)C)n1)C2 [Example 11]

IC50: 100 to 1000 nM
SMILES: Cc1ccncc1-c1ccc2c(c1)C(=O)N(c1cccc(-n3nnnc3C(C)C)n1)C2 [Example 12]

IC50: 1 to 10 nM
SMILES: CC(C)n1nnnc1-c1cccc(N2Cc3ccc(-c4cccnc4)cc3C2=O)n1 [Example 13]
